# Laboratory results reported in ChEMBL document CHEMBL1201862, “PubChem BioAssay data set” (2004).
#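 96-well plates; 48 h exposure; 5 concentrations. Endpoints by linear interpolation between flanking doses. Not reached: highest tested concentration assigned. Here, GI50 denotes the concentration required for 50% inhibition of growth.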 The source made the active and inactive calls. Cut-off read from the data, not from the text of the source: active = GI50 up to about 1.1 µM and inactive = higher.
# Assays:
# Assay in all cases: NCI-60 cell line screen, 48 h
# OVCAR-4 = system: OVCAR-4
# MDA-N = system: MDA-N
# HOP-92 = system: HOP-92
# OVCAR-8 = system: OVCAR-8
# PC-3 = system: PC-3
# RXF 393 = system: RXF 393
# BT-549 = system: BT-549
# T47D = system: T47D
# SK-MEL-2 = system: SK-MEL-2
# HT-29 = system: HT-29
# SF-268 = system: SF-268
# NCI/ADR-RES = system: NCI/ADR-RES
# SK-OV-3 = system: SK-OV-3
# UACC-257 = system: UACC-257
# NCI-H23 = system: NCI-H23
# HOP-62 = system: HOP-62
# UO-31 = system: UO-31
# MDA-MB-231 = system: MDA-MB-231
# NCI-H226 = system: NCI-H226
# CCRF-CEM = system: CCRF-CEM
# NCI-H460 = system: NCI-H460
# ACHN = system: ACHN
# TK-10 = system: TK-10
# U-251 = system: U-251
# SF-295 = system: SF-295
# A549 = system: A549
# K562 = system: K562
# RPMI-8226 = system: RPMI-8226
# HCT-15 = system: HCT-15
# OVCAR-3 = system: OVCAR-3
# HL-60 = system: HL-60
# SN12C = system: SN12C
# MDA-MB-435 = system: MDA-MB-435
# SNB-19 = system: SNB-19
# SW-620 = system: SW-620
# DU-145 = system: DU-145
# A498 = system: A498
# EKVX = system: EKVX
# SK-MEL-28 = system: SK-MEL-28
# MCF7 = system: MCF7
# HCT-116 = system: HCT-116
# 786-0 = system: 786-0
# OVCAR-5 = system: OVCAR-5
# KM12 = system: KM12
# UACC-62 = system: UACC-62
# SNB-75 = system: SNB-75
# Malme-3M = system: Malme-3M
# Hs-578T = system: Hs-578T
# M14 = system: M14
# HCC 2998 = system: HCC 2998
# COLO 205 = system: COLO 205
# SF-539 = system: SF-539
# IGROV-1 = system: IGROV-1
# CAKI-1 = system: CAKI-1
# LOX IMVI = system: LOX IMVI
# NCI-H522 = system: NCI-H522
# SK-MEL-5 = system: SK-MEL-5
# MOLT-4 = system: MOLT-4
smiles,measurement,setting,value
CC(=O)OC[C@@]1(C)[C@@H]2[C@@H]3[C@@]4(CO[C@]3(C)C(=O)[C@@]3(OC(C)=O)C[C@H](C)[C@H](OC(C)=O)[C@@H]3[C@H]4OC(C)=O)[C@H](OC(=O)c3ccccc3)C[C@@H]21,GI50,OVCAR-4,> 100 µM (inactive)
same,GI50,MDA-N,> 100 µM (inactive)
same,GI50,HOP-92,> 100 µM (inactive)
same,GI50,OVCAR-8,> 100 µM (inactive)
same,GI50,PC-3,45.6 µM (inactive)
same,GI50,RXF 393,> 100 µM (inactive)
same,GI50,BT-549,> 100 µM (inactive)
same,GI50,T47D,66.2 µM (inactive)
same,GI50,SK-MEL-2,> 100 µM (inactive)
same,GI50,HT-29,89.9 µM (inactive)
same,GI50,SF-268,> 100 µM (inactive)
same,GI50,NCI/ADR-RES,> 100 µM (inactive)
same,GI50,SK-OV-3,> 100 µM (inactive)
same,GI50,UACC-257,> 100 µM (inactive)
same,GI50,NCI-H23,> 100 µM (inactive)
same,GI50,HOP-62,> 100 µM (inactive)
same,GI50,UO-31,99.8 µM (inactive)
same,GI50,MDA-MB-231,> 100 µM (inactive)
same,GI50,NCI-H226,> 100 µM (inactive)
same,GI50,CCRF-CEM,32.8 µM (inactive)
same,GI50,NCI-H460,59 µM (inactive)
same,GI50,ACHN,> 100 µM (inactive)
same,GI50,TK-10,> 100 µM (inactive)
same,GI50,U-251,> 100 µM (inactive)
same,GI50,SF-295,93.3 µM (inactive)
same,GI50,A549,74.1 µM (inactive)
same,GI50,K562,24 µM (inactive)
same,GI50,RPMI-8226,19 µM (inactive)
same,GI50,HCT-15,> 100 µM
same,GI50,OVCAR-3,> 100 µM (inactive)
same,GI50,HL-60,63.8 µM (inactive)
same,GI50,SN12C,> 100 µM (inactive)
same,GI50,MDA-MB-435,> 100 µM (inactive)
same,GI50,SNB-19,> 100 µM (inactive)
same,GI50,SW-620,78.5 µM (inactive)
same,GI50,DU-145,> 100 µM (inactive)
same,GI50,A498,> 100 µM (inactive)
same,GI50,EKVX,63.2 µM (inactive)
same,GI50,SK-MEL-28,> 100 µM (inactive)
same,GI50,MCF7,81.8 µM (inactive)
same,GI50,HCT-116,67.9 µM (inactive)
same,GI50,786-0,> 100 µM (inactive)
same,GI50,OVCAR-5,> 100 µM (inactive)
same,GI50,KM12,> 100 µM (inactive)
same,GI50,UACC-62,> 100 µM (inactive)
same,GI50,SNB-75,> 100 µM (inactive)
same,GI50,Malme-3M,> 100 µM (inactive)
same,GI50,Hs-578T,> 100 µM (inactive)
same,GI50,M14,91.4 µM (inactive)
same,GI50,HCC 2998,> 100 µM (inactive)
same,GI50,COLO 205,49.8 µM (inactive)
same,GI50,SF-539,> 100 µM (inactive)
same,GI50,IGROV-1,> 100 µM (inactive)
same,GI50,CAKI-1,> 100 µM (inactive)
same,GI50,LOX IMVI,79.6 µM (inactive)
same,GI50,NCI-H522,> 100 µM (inactive)
same,GI50,SK-MEL-5,> 100 µM (inactive)
COc1ccc(C2=NN(C(=O)c3ccc(Cl)cc3)C(O)(c3cc(F)c(Cl)cc3Cl)C2)cc1 (centres undefined),GI50,OVCAR-4,8.61 µM (inactive)
same,GI50,MDA-N,22.4 µM (inactive)
same,GI50,HOP-92,> 100 µM (inactive)
same,GI50,OVCAR-8,> 100 µM (inactive)
same,GI50,PC-3,61.9 µM (inactive)
same,GI50,RXF 393,> 100 µM (inactive)
same,GI50,BT-549,> 100 µM (inactive)
same,GI50,T47D,57.7 µM (inactive)
same,GI50,SK-MEL-2,21.7 µM (inactive)
same,GI50,HT-29,17.3 µM (inactive)
same,GI50,SF-268,> 100 µM (inactive)
same,GI50,NCI/ADR-RES,48.3 µM (inactive)
same,GI50,SK-OV-3,> 100 µM (inactive)
same,GI50,UACC-257,49.9 µM (inactive)
same,GI50,NCI-H23,37.6 µM (inactive)
same,GI50,HOP-62,> 100 µM (inactive)
same,GI50,UO-31,16.9 µM (inactive)
same,GI50,MDA-MB-231,> 100 µM (inactive)
same,GI50,MOLT-4,12.8 µM (inactive)
same,GI50,NCI-H226,> 100 µM (inactive)
same,GI50,CCRF-CEM,50.2 µM (inactive)
same,GI50,NCI-H460,56.8 µM (inactive)
same,GI50,ACHN,> 100 µM (inactive)
same,GI50,TK-10,> 100 µM (inactive)
same,GI50,U-251,> 100 µM (inactive)
same,GI50,SF-295,> 100 µM (inactive)
same,GI50,A549,49.2 µM (inactive)
same,GI50,K562,40.6 µM (inactive)
same,GI50,RPMI-8226,22.9 µM (inactive)
same,GI50,HCT-15,28.1 µM
same,GI50,OVCAR-3,> 100 µM (inactive)
same,GI50,HL-60,51.5 µM (inactive)
same,GI50,SN12C,39.1 µM (inactive)
same,GI50,MDA-MB-435,18.6 µM (inactive)
same,GI50,SNB-19,> 100 µM (inactive)
same,GI50,DU-145,> 100 µM (inactive)
same,GI50,A498,71.6 µM (inactive)
same,GI50,EKVX,6.04 µM (inactive)
same,GI50,SK-MEL-28,> 100 µM (inactive)
same,GI50,MCF7,19 µM (inactive)
same,GI50,HCT-116,23.4 µM (inactive)
same,GI50,786-0,> 100 µM (inactive)
same,GI50,OVCAR-5,> 100 µM (inactive)
same,GI50,KM12,24.5 µM (inactive)
same,GI50,UACC-62,> 100 µM (inactive)
same,GI50,SNB-75,15 µM (inactive)
same,GI50,Malme-3M,> 100 µM (inactive)
same,GI50,Hs-578T,> 100 µM (inactive)
same,GI50,M14,44.8 µM (inactive)
same,GI50,HCC 2998,43.5 µM (inactive)
same,GI50,COLO 205,93.5 µM (inactive)
same,GI50,SF-539,> 100 µM (inactive)
same,GI50,IGROV-1,> 100 µM (inactive)
same,GI50,CAKI-1,27.4 µM (inactive)
same,GI50,LOX IMVI,77.8 µM (inactive)
same,GI50,NCI-H522,> 100 µM (inactive)
same,GI50,SK-MEL-5,> 100 µM (inactive)
COc1ccccc1OCC(=N/NC(=O)c1ccncc1)/N=C/c1ccncc1,GI50,OVCAR-4,> 100 µM (inactive)
same,GI50,MDA-N,> 100 µM (inactive)
same,GI50,HOP-92,44 µM (inactive)
same,GI50,OVCAR-8,> 100 µM (inactive)
same,GI50,PC-3,> 100 µM (inactive)
same,GI50,RXF 393,> 100 µM (inactive)
same,GI50,BT-549,> 100 µM (inactive)
same,GI50,T47D,> 100 µM (inactive)
same,GI50,SK-MEL-2,> 100 µM (inactive)
same,GI50,HT-29,> 100 µM (inactive)
same,GI50,SF-268,> 100 µM (inactive)
same,GI50,NCI/ADR-RES,> 100 µM (inactive)
same,GI50,SK-OV-3,> 100 µM (inactive)
same,GI50,UACC-257,> 100 µM (inactive)
same,GI50,NCI-H23,> 100 µM (inactive)
same,GI50,HOP-62,> 100 µM (inactive)
same,GI50,MDA-MB-231,> 100 µM (inactive)
same,GI50,MOLT-4,> 100 µM (inactive)
same,GI50,NCI-H226,> 100 µM (inactive)
same,GI50,CCRF-CEM,> 100 µM (inactive)
same,GI50,NCI-H460,> 100 µM (inactive)
same,GI50,ACHN,> 100 µM (inactive)
same,GI50,TK-10,> 100 µM (inactive)
same,GI50,U-251,> 100 µM (inactive)
same,GI50,SF-295,> 100 µM (inactive)
same,GI50,A549,> 100 µM (inactive)
same,GI50,K562,> 100 µM (inactive)
same,GI50,RPMI-8226,> 100 µM (inactive)
same,GI50,HCT-15,> 100 µM
same,GI50,OVCAR-3,> 100 µM (inactive)
same,GI50,HL-60,> 100 µM (inactive)
same,GI50,SN12C,> 100 µM (inactive)
same,GI50,MDA-MB-435,> 100 µM (inactive)
same,GI50,SNB-19,> 100 µM (inactive)
same,GI50,SW-620,> 100 µM (inactive)
same,GI50,DU-145,> 100 µM (inactive)
same,GI50,A498,> 100 µM (inactive)
same,GI50,EKVX,> 100 µM (inactive)
same,GI50,SK-MEL-28,> 100 µM (inactive)
same,GI50,MCF7,> 100 µM (inactive)
same,GI50,HCT-116,> 100 µM (inactive)
same,GI50,786-0,> 100 µM (inactive)
same,GI50,OVCAR-5,> 100 µM (inactive)
same,GI50,KM12,> 100 µM (inactive)
same,GI50,UACC-62,> 100 µM (inactive)
same,GI50,Malme-3M,> 100 µM (inactive)
same,GI50,Hs-578T,> 100 µM (inactive)
same,GI50,M14,> 100 µM (inactive)
same,GI50,HCC 2998,> 100 µM (inactive)
same,GI50,COLO 205,> 100 µM (inactive)
same,GI50,SF-539,> 100 µM (inactive)
same,GI50,IGROV-1,> 100 µM (inactive)
same,GI50,CAKI-1,> 100 µM (inactive)
same,GI50,LOX IMVI,> 100 µM (inactive)
same,GI50,NCI-H522,> 100 µM (inactive)
